Test results: US11555012B2 (Nimbus Artemis, Inc., priority 2018, dated 2023)

target: T1, ACL (Homo sapiens (Human), UniProt P53396); assay: ADP-Glo Assay; settings: not given
Target sequence in this assay (P53396 other isoform, or with tags, fused parts or gaps isoform P53396-2): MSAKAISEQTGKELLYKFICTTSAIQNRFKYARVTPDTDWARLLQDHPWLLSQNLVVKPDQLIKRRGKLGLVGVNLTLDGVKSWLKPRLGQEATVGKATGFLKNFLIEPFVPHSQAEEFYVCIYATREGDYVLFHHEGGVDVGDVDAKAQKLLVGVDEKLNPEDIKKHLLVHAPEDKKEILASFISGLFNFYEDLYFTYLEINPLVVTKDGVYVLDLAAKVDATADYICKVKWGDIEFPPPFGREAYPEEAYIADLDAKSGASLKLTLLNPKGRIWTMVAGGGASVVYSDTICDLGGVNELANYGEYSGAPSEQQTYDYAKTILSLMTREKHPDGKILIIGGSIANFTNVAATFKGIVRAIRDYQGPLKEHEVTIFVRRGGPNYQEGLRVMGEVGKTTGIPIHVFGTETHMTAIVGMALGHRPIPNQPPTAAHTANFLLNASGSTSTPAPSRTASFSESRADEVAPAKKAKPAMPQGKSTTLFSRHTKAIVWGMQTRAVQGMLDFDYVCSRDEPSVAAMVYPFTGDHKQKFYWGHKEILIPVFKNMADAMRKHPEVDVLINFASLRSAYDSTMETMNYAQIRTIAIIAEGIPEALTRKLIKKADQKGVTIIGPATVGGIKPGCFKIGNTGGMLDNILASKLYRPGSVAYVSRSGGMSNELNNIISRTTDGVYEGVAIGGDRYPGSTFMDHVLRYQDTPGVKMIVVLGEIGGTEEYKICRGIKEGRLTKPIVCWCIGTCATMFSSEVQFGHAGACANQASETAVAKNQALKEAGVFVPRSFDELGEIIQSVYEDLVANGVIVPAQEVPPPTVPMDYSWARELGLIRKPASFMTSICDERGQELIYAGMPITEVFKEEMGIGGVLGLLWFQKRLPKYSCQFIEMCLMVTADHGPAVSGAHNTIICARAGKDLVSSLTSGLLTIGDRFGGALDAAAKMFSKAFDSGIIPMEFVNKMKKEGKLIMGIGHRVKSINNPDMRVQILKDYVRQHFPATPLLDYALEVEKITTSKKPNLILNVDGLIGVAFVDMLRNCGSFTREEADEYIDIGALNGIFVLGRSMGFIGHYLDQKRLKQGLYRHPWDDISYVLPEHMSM

Row | Structure (SMILES) | IC50 [µM]
1 | CC(C)(C)OC(=O)COc1c(Cl)cc(C(=O)N2CCC2)cc1S(=O)(=O)Nc1cc(-c2ccccc2)c(F)cc1F [I-387, tert-butyl 2-[4-(azetidine-1-carbonyl)-2-chloro-6-([4,6-difluoro-[1,1-biphenyl]-3-yl]sulfamoyl)phenoxy]acetate] | > 20
2 | O=S(=O)(Nc1cc(-c2ccccc2)ccc1F)c1cc(-c2nn[nH]n2)ccc1F [I-424, 2-fluoro-N-(2-fluoro-5-phenylphenyl)-5-(2H-1,2,3,4-tetrazol-5-yl)benzene-1-sulfonamide] | > 20
3 | O=S(=O)(Nc1cc(-c2ccccc2)ccc1F)c1cccc2cc[nH]c12 [I-377, N-[4-fluoro-[1,1-biphenyl]-3-yl]-1H-indole-7-sulfonamide] | > 20
4 | COc1ccc(-c2ccccc2)cc1N(Cc1ccccc1)S(=O)(=O)c1c(C)c(Cl)cc(Cl)c1OCc1ccccc1 [I-397, N-benzyl-2-(benzyloxy)-3,5-dichloro-N-(4-methoxy-[1,1′-biphenyl]-3-yl)-6-methylbenzenesulfonamide] | > 20
5 | COc1ccc(-c2ccccc2)cc1N(Cc1cc(Cl)cc(Cl)c1O)S(C)(=O)=O [I-391, N-(3,5-dichloro-2-hydroxybenzyl)-N-(4-methoxy-[1,1′-biphenyl]-3-yl)methanesulfonamide] | > 20
6 | O=C(O)c1cc(NC(=O)c2cc(F)cc3nc[nH]c23)ccc1Cl [I-535, 2-chloro-5-(5-fluoro-1H-benzo[d]imidazole-7-carboxamido)benzoic acid] | > 20
7 | O=S(=O)(Nc1ccc(F)cc1F)c1cc(Cl)cc(-c2nn[nH]n2)c1 [I-373, 3-chloro-N-(2,4-difluorophenyl)-5-(2H-1,2,3,4-tetrazol-5-yl)benzene-1-sulfonamide] | > 20
8 | O=C(O)c1cc(NC(=O)c2cccc3ncccc23)ccc1Cl [I-531, 2-chloro-5-(quinoline-5-carboxamido)benzoic acid] | > 20
9 | COc1c(Cl)cc(C(=O)N2CCC2)cc1S(=O)(=O)Nc1cc(-c2ccccc2)c(F)cc1F [I-378, 5-(azetidine-1-carbonyl)-3-chloro-N-[4,6-difluoro-[1,1-biphenyl]-3-yl]-2-methoxybenzene-1-sulfonamide] | > 20
10 | COc1ccc(-c2ccccc2)cc1N(C)S(=O)(=O)c1cc(Cl)cc(Cl)c1OC [I-401, 3,5-dichloro-2-methoxy-N-(4-methoxy-[1,1′-biphenyl]-3-yl)-N-methylbenzenesulfonamide] | > 20
11 | CO[C@@H]1CCN(C(=O)c2cc(Cl)cc(S(=O)(=O)Nc3cc(-c4ccccc4)c(F)cc3F)c2)C1 [I-388, (R)-3-chloro-N-(4,6-difluoro-[1,1′-biphenyl]-3-yl)-5-(3-methoxypyrrolidine-1-carbonyl)benzenesulfonamide] | > 20
12 | COC(=O)c1cc(Cl)cc(S(=O)(=O)Nc2cc(-c3ccccc3)ccc2OC)c1OC [I-435, Methyl 5-chloro-2-methoxy-3-(N-(4-methoxy-[1,1′-biphenyl]-3-yl)sulfamoyl)benzoate] | > 20
13 | O=S(=O)(Nc1cc(-c2ccccc2)c(F)cc1F)c1cccc2ccccc12 [I-376, N-(4,6-difluoro-[1,1 biphenyl]-3-yl)naphthalene-1-sulfonamide] | > 20
14 | COC(=O)c1ncccc1S(=O)(=O)Nc1cc(-c2ccccc2)ccc1F [I-250] | 0.5 to 20
15 | CC(NS(=O)(=O)c1cc(Cl)cc(Cl)c1O)c1ccc2c(c1)NC(=O)CO2 (centres unmarked) [I-184] | 0.5 to 20
16 | CC(C)NC(=O)c1ccc(NS(=O)(=O)c2cc(Cl)cc(Cl)c2O)cc1 [I-178] | 0.5 to 20
17 | O=S(=O)(NC1CCN(c2ccccc2)C1)c1cc(Cl)cc(Cl)c1O (centres unmarked) [I-183] | 0.5 to 20
18 | O=C(O)c1ccc(-c2ccccc2)cc1NS(=O)(=O)c1ccc2[nH]ncc2c1 [I-301, 3-(1H-indazole-5-sulfonamido)-[1,1′-biphenyl]-4-carboxylic Acid] | 0.5 to 20
19 | CO[C@H]1CCN(C(=O)c2cc(Cl)cc(S(=O)(=O)Nc3cc(-c4ccccc4)c(F)cc3F)c2)C1 [I-389, (S)-3-chloro-N-(4,6-difluoro-[1,1′-biphenyl]-3-yl)-5-(3-methoxypyrrolidine-1-carbonyl)benzenesulfonamide] | > 20
20 | O=C(O)c1ccc(-c2ccccc2)cc1NS(=O)(=O)CC1CCC1 [I-307, 3-((cyclobutylmethyl)sulfonamido)-[1,1′-biphenyl]-4-carboxylic Acid] | 0.5 to 20
21 | O=S(=O)(NC1CCN(c2nc3ccccc3s2)CC1)c1cc(Cl)cc(Cl)c1O [I-176] | 0.5 to 20

More lines, now with the values ahead:

Row | IC50 [µM] | Structure (SMILES)
22 | 0.5 to 20 | O=C(O)c1ccc(-c2ccccc2)cc1NS(=O)(=O)N1CCC2(CCCCC2)CC1 [I-340]
23 | 0.5 to 20 | O=C(O)c1ccc(-c2ccccc2)cc1NS(=O)(=O)c1cccc(C(F)(F)F)n1 [I-312, 3-((6-(trifluoromethyl)pyridine)-2-sulfonamido)-[1,1′-biphenyl]-4-carboxylic Acid]
24 | 0.5 to 20 | O=S(=O)(Nc1cc(-c2ccccc2)ccc1F)c1cc(Cl)cc(Cl)c1Oc1nccs1 [I-97, 3,5-dichloro-N-(2-fluoro-5-phenylphenyl)-2-(1,3-thiazol-2-yloxy)benzene-1-sulfonamide]
25 | 0.5 to 20 | COc1cc(F)c(-c2cc3ccccc3s2)cc1NS(=O)(=O)c1cc(C(=O)O)cc(F)c1O [I-517, 3-(N-(5-(benzo[b]thiophen-2-yl)-4-fluoro-2-methoxyphenyl)sulfamoyl)-5-fluoro-4-hydroxybenzoic Acid]
26 | 0.5 to 20 | O=C(O)c1ccc(-c2ccccc2)cc1NS(=O)(=O)c1cccc(Cl)c1 [I-273, 3-((3-chlorophenyl)sulfonamido)-[1,1′-biphenyl]-4-carboxylic acid]
27 | 0.5 to 20 | O=S(=O)(Nc1cc(-c2ccccc2)ccc1F)c1cccc(-c2nn[nH]n2)c1 [I-37, N-(2-fluoro-5-phenylphenyl)-3-(2H-1,2,3,4-tetrazol-5-yl) benzene-1-sulfonamide]
28 | 0.5 to 20 | COc1ccc(-c2ccccc2)cc1N(C)S(=O)(=O)c1cc(Cl)cc(Cl)c1O [I-17, 3,5-dichloro-2-hydroxy-N-(4-methoxy-[1,1′-biphenyl]-3-yl)-N-methylbenzenesulfonamide]
29 | 0.5 to 20 | COc1ccc(-c2ccccc2)cc1NS(=O)(=O)c1cc(-c2nn[nH]n2)cc(Cl)c1OC [I-71, 3-chloro-2-methoxy-N-(2-methoxy-5-phenylphenyl)-5-(2H-1,2,3,4-tetrazol-5-yl)benzene-1-sulfonamide]
30 | 0.5 to 20 | CN(c1cc(-c2ccccc2)ccc1F)S(=O)(=O)c1cc(Cl)cc(Br)c1O [I-370, 3-bromo-5-chloro-N-(4-fluoro-[1,1′-biphenyl]-3-yl)-2-hydroxy-N-methylbenzenesulfonamide]
31 | 0.5 to 20 | O=C(O)COc1c(Cl)cc(Cl)cc1C(=O)Nc1cc(-c2ccccc2)ccc1C(=O)O [I-308, 3-(2-(carboxymethoxy)-3,5-dichlorobenzamido)-[1,1′-biphenyl]-4-carboxylic Acid]
32 | 0.5 to 20 | COc1ccc(F)cc1S(=O)(=O)Nc1cc(-c2ccccc2)ccc1C(=O)O [I-315, 3-((5-fluoro-2-methoxyphenyl)sulfonamido)-[1,1′-biphenyl]-4-carboxylic Acid]
33 | 0.5 to 20 | COC(=O)c1cc(Cl)c(OC)c(S(=O)(=O)Nc2cc(-c3cccs3)ccc2F)c1 [I-52, Methyl 3-chloro-5-(N-(2-fluoro-5-(thiophen-2-yl)phenyl)sulfamoyl)-4-methoxybenzoate]
34 | 0.5 to 20 | O=C(O)c1ccc(-c2ccccc2)cc1NS(=O)(=O)c1ccc(Cl)c(Cl)c1 [I-284, 3-((3,4-dichlorophenyl)sulfonamido)-[1,1′-biphenyl]-4-carboxylic acid]
35 | 0.5 to 20 | CC(C)Cc1csc(NS(=O)(=O)c2cc(Cl)cc(Cl)c2O)c1C(=O)N1CCOCC1 [I-165]
36 | 0.5 to 20 | O=S(=O)(Nc1cc(-c2ccccc2)c(F)cc1F)c1cccc(Cl)c1F [I-195, 3-chloro-N-(4,6-difluoro-[1,1′-biphenyl]-3-yl)-2-fluorobenzenesulfonamide]
37 | 0.5 to 20 | CC(C)(C)OC(=O)COc1ccc(-c2ccccc2)cc1NS(=O)(=O)c1cc(Cl)cc(Cl)c1O [I-214, tert-butyl 2-[[3-(3,5-dichloro-2-hydroxybenzenesulfonamido)-[1,1-biphenyl]-4-yl]oxy]acetate]
38 | 0.5 to 20 | N#Cc1cc(Cl)cc(S(=O)(=O)Nc2cc(-c3ccccc3)c(F)cc2F)c1 [I-75, 3-chloro-5-cyano-N-(2,4-difluoro-5-phenylphenyl) benzene-1-sulfonamide]
39 | 0.5 to 20 | O=C(O)c1ccc(-c2ccccc2)cc1NS(=O)(=O)CCc1ccccc1 [I-259]
40 | 0.5 to 20 | COc1ccc(-c2ccccc2)cc1NS(=O)(=O)c1cc(F)cc(F)c1O [I-40, 3,5-difluoro-2-hydroxy-N-(2-methoxy-5-phenylphenyl) benzene-1-sulfonamide]
41 | 0.5 to 20 | COC(=O)COc1c(Br)cc(Cl)cc1S(=O)(=O)Nc1cc(-c2ccccc2)ccc1F [I-78, Methyl 2-(2-bromo-4-chloro-6-(N-(4-fluoro-[1,1′-biphenyl]-3-yl)sulfamoyl)phenoxy)acetate]
42 | 0.5 to 20 | O=C(O)c1ccc(-c2ccccc2)cc1NS(=O)(=O)c1ccccc1 [I-225, 3-(phenylsulfonamido)-[1,1′-biphenyl]-4-carboxylic Acid]
43 | 0.5 to 20 | O=C(NCc1cc(-c2ccccc2)ccc1C(=O)O)c1cc(Cl)cc(Cl)c1 [I-309, 3-((3,5-dichlorobenzamido)methyl)-[1,1′-biphenyl]-4-carboxylic Acid]
44 | 0.5 to 20 | O=C(Nc1ccccc1)c1ccc(F)c(NS(=O)(=O)c2cc(Cl)cc(Cl)c2O)c1 [I-61, 3-((3,5-dichloro-2-hydroxyphenyl)sulfonamido)-4-fluoro-N-phenylbenzamide]
45 | 0.5 to 20 | O=S(=O)(Nc1cc(-c2ccccc2)ccc1F)c1cc(Cl)cc(Cl)c1F [I-207, 3,5-dichloro-2-fluoro-N-[4-fluoro-[1,1-biphenyl]-3-yl]benzene-1-sulfonamide]

same assay, conditions: read-out: ACL-ADP-Glo (IC50); 3 nM ACL, 15 μM ATP, 3 μM CoA, 300 μM Citrate

Row | Structure (SMILES) | IC50 [µM]
46 | O=C(c1cc(Cl)c(O)c(S(=O)(=O)Nc2cc(-c3ccccc3)ccn2)c1)N1CCC1 [I-237] | 0.5 to 20

target: T1, ACL; assay: ACLY-MDH Coupled Assay; settings: not given
Target sequence in this assay (P53396 whole entry, species assumed): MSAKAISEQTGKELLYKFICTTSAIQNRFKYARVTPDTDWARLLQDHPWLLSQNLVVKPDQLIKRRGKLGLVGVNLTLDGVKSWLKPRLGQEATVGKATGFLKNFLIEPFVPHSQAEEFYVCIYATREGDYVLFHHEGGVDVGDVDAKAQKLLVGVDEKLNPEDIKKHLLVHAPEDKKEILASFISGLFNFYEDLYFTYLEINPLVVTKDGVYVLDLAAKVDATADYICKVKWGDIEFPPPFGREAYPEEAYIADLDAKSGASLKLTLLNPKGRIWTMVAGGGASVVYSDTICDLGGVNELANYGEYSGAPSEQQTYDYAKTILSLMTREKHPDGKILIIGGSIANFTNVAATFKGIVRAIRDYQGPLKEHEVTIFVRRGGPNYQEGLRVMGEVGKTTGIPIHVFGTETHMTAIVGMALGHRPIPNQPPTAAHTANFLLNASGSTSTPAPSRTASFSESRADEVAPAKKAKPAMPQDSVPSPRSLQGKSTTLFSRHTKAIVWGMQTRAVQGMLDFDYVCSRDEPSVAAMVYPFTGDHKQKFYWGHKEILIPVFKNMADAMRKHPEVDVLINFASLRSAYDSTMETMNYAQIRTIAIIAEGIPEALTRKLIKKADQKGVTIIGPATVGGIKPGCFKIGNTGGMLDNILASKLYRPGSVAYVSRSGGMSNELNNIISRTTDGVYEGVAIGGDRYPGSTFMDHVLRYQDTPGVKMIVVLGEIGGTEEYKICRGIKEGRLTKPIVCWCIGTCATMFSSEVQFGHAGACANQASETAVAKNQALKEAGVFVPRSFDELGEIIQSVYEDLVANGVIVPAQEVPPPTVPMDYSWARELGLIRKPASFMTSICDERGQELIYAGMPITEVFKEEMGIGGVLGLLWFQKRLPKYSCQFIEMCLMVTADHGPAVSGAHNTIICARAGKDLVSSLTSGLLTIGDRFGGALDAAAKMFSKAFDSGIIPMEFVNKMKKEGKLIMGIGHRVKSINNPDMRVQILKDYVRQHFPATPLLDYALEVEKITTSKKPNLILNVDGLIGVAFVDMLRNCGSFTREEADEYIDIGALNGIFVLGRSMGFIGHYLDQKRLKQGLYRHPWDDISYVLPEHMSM

Row | IC50 [µM] | Structure (SMILES)
47 | 0.5 to 30 | O=C(O)c1ccc(-c2ccccc2)cc1NS(=O)(=O)N1CCC2(CCCCC2)CC1 [I-340]
